Experimental data as given in patent US8658777B2, “Activated protease indicator” (The University of Tokyo, priority 2007, dated 2014).
*1 amine or outer side, *2 acyl side, *3 side chain or, on linkers, in order; H or OH if unused. Where a SMILES comes first, the peptide text is derived from it. Bridges are numbered along the chain shown (N, C = ends). Roman numbers before positions name the chains, in order. [ ]: non-standard residue; d: D form. The star is where a group is joined. Actinocin(9to1) = Cc1c2oc3c(C)ccc(C(=O)[*:1])c3nc-2c(C(=O)[*:2])c(N)c1=O; NMeV = CN[C@H](C(=O)O)C(C)C; Cbz = O=C(OCc1ccccc1)*; Sar = CNCC(=O)O; CH2F = FC*

Columns and labels:
caspase-3 [1] = assay: In vitro assay of firefly luciferase in COS-7 cells transfected with pcFluc-DEVD; format: cell-based
Method: [FIG. 5] Quantitative analysis of the Fluc activity with STS and Z-VAD-FMK. After transfection of COS-7 cells with pcFluc-DEVD for 48 hours, the cells were treated with 100 μM Z-VAD-FMK or vehicle (0.1% DMSO) for an hour and then stimulated with various concentrations of STS for two hours. A relative luminescence unit (RLU) was defined as follows: the luminescence intensity from the right side (LumR) was divided by that from the left side (LumL), as RLU (%)=LumR/LumL.
(§1) pcFluc-DEVD and pRL-TK were transfected in the COS-7 cells and the HeLa cells for 48 hours. These cells were treated with STS or a caspase inhibitor Z-VAD-FMK (Sigma) to assay the luciferase activity according to the report (Ozawa, T. et al. (2001) Anal. Chem. 73, 2516-21; Kanno, A. et al. (2006) Anal. Chem. 78, 556-60). The assay time period of Fluc and Renilla reniformis luciferase (Rluc) was 20 seconds. The luminescence from Fluc (LF) was normalized to the luminescence from Rluc (LR), and the resulting value was defined as relative luminescence unit (RLU; RLU=LF/LR). All the assays were done in various wells in a culture plate triplicately, using a luminometer of MiniLuraat LB9506 (Berthold GmbH & Co. KG, Wildbad, Germany). The results are shown as the mean ratio of the RLU value to the RLU value of cells treated with a solvent (0.1% DMSO), together with the standard deviations.
In the Example, continuously, it was examined whether the activity of the cyclic Fluc was restored after stimulation with STS. COS-7 cells transfected with pcFluc-DEVD were stimulated with STS or a caspase inhibitor Z-VAD-FMK, or with both STS and Z-VAD-FMK. The cells were harvested and their lysates were mixed with a Fluc substrate, D-luciferin. […] The luminescence signals in the presence of Z-VAD-FMK were smaller than the signals that originated from the cells in the absence of STS and Z-VAD-FMK.

caspase-3 [2] = assay: In vitro assay of firefly luciferase in HeLa cells transfected with pcFluc-DEVD; format: cell-based
Method: (§2) [FIG. 7] Quantitative analysis of the Flue activity with STS. After transfection of HeLa cells with pcFluc-DEVD for 48 hours, the cells were treated with various concentrations of STS for two hours. A relative luminescence unit (RLU) was defined as follows: the luminescence intensity from the right side (LumR) was divided by that from the left side (LumL), as RLU (%)=LumR/LumL.
as §2, with “8]” for “7]”, “Z-VAD-FMK. The” for “STS. After transfection of”, “cells were transfected” for “cells”, “hours,” for “hours, the cells were”, “treated with different concentrations of Z-VAD-FMK or vehicle (0.1% DMSO), and stimulated” for “treated”
as §1
To show the feasibility of cyclic Fluc for characterizing apoptotic regents, the sensitivity of cyclic Fluc was examined, using HeLa cells. The cells were transfected with pcFluc-DEVD, for transient expression of chimera proteins, which were stimulated with different concentrations of STS for two hours. […]

caspase-3 [3] = assay: Western blot analysis of cyclic and linear Fluc in COS-7 cells transfected with pcFluc-DEVD; format: cell-based; conditions: indicated concentrations of STS for two hours, Western blot (FIG. 4)
Method: Western blot analysis of Fluc in the circular form and in the linear form. COS-7 cells transfected with pcFluc-DEVD for 48 hours were treated with the indicated concentrations of STS for two hours and harvested. The sample was electrophoresed, transferred on a nitrocellulose membrane and stained with a specific antibody.
pcFluc-DEVD was transfected in the COS-7 cells for 48 hours. The cells were stimulated with staurosporine (STS; Sigma, St. Louise, Mo.) and then disrupted in a lysis buffer (1% SDS, 10% glycerol, 10% 2-mercaptoethanol, 0.001% Bromophenol Blue, 50 mM Tris/HCl, pH 6.8). The sample was electrophoresed with 10% SDS polyacrylamide gel, which was then transferred on a nitrocellulose membrane (Hybond-ECL, GE Healthcare, Buckinghamshire, England). Fluc was detected with a polyclonal anti-luciferase antibody (Promega); the immunoreactivity was evaluated, using horseradish peroxidase (HRP) conjugated to an anti-goat IgG antibody (Promega). The HRP activity was visualized, using an ECL advance Western blotting detection kit (GE Healthcare) with LAS-1000 plus image analyzer (Fuji Film Co., Tokyo, Japan).
To assess whether the fusion protein expressed by pcFluc-DEVD produces cyclic Fluc by protein splicing, herein, pcFluc-DEVD was transfected in COS-7 cells and chimera proteins were transiently expressed for 48 hours. The spliced products were examined by Western blot (FIG. 3). […]

caspase-3 [4] = assay: Real-time in vitro analysis of caspase-3 activity in HeLa cells expressing cyclic Fluc; format: cell-based
Method: (§3) [FIG. 9] Real-time in vitro analysis of caspase-3 activity. Forty eight hours after HeLa cells transfected with pcFluc-DEVD were treated with different concentrations of STS and then the bioluminescence intensities were measured every 5 minutes. The indicated time represents the time after the addition of each agent.
as §3, with “10] Results of the measurement with actinomycin D (ActD) in the same manner as in FIG. 9.” for “9]”, “capsase-3” for “caspase-3”, “actinomycin D (ActD)” for “STS”
pcFluc-DEVD was transfected in the HeLa cells in a 10-cm Petri dish for 24 hours. The cells were scraped off and divided in five 3-cm Petri dishes, for culturing for 24 hours. The culture medium was replaced with the Hank's balanced salt solution (Gibco) containing 500 μM D-luciferin and 5% FBS. After the five 3-cm Petri dishes were mounted on a photon counter (KRONOS, ATTO, Tokyo, Japan), the cells were stimulated with STS or actinomycin D (Act D, Sigma). The luminescence intensity in each of the Petri dishes was assayed for a cumulative time period of 45 seconds at an interval of 5 minutes.
It is known that the time required for caspase-3 activation in response to extracellular stimuli varies with the type of chemical compounds and its concentration. In order to decide upon a screening time, it is crucial to know when the activity of caspase-3 gives a maximum response after stimulation with such apoptotic chemical regents. […] First, the cyclic Fluc indicator was transiently expressed in HeLa cells; the luminescence intensity upon stimulation with STS at various concentrations was monitored every five minutes in a time course (FIG. 9). […] The rate of increase in the luminescence intensity depended on the STS concentration. […] The decrease in the luminescence signal intensity indicates attenuation of active luciferase by proteolysis in the HeLa cells.

caspase-3 [5] = assay: In vivo imaging of caspase-3 activity in living mice implanted with HeLa cells expressing cyclic Fluc; design: species or system BALB/c-nude mouse
Text: [FIG. 11] In vivo luminescence assay of mice carrying transiently transfected HeLa cells. The mice were subcutaneously implanted with HeLa cells expressing cyclic Fluc (right side) and full-length Fluc (left side). Images of the mice were taken at the indicated times after intraperitoneal injection of STS. A representative of three mice is shown.
[FIG. 12] Time-dependent changes in the photon count from the implanted site in FIG. 11. The relative luminescence unit (RLU) is shown on the longitudinal axis, where RLU=LumR/LumL provided that luminescence intensity from the right side (LumR) is divided with the luminescence intensity from the left side (LumL), as shown in (A). A relative luminescence unit (RLU) was defined as follows: the luminescence intensity from the right side (LumR) was divided by that from the left side (LumL), as RLU (%)=LumR/LumL.
pX8luc or pcFluc-DEVD was transfected in HeLa cells for 48 hours. The cells were harvested and suspended in a phosphate buffered saline (PBS), from which 1.0×10^6 cells were transplanted in two different dorsal positions of a BALB/c-nude mouse (female, five-week-old, body weight of about 17 to 20 g). After the cell transplantation, STS dissolved in DMSO was intraperitoneally injected. Immediately thereafter, a PBS buffer containing D-luciferin (600 mg/kg body weight) was intraperitoneally injected, to assay the luminescence from the mouse, using a CCD camera (IVIS200 system, Xenogen, Alameda, Calif.). Photons emitted from the transplanted cells were counted and cumulatively recorded over one minute. Image analysis was done, using the software LIVING IMAGE (Xenogen). So as to quantitatively determine the assayed luminescence, a region of interest was extracted from the cell-transplanted regions, to evaluate the luminescence intensity (photon·second^−1·cm^−2). […]
To quantitatively evaluate the effect of STS on caspase-3 activity, a relative luminescence unit (RLU) was defined as follows; the luminescence intensity from the right side (LumR) was divided by that from the left side (LumL), as RLU (%)=LumR/LumL. […]

caspase-3 [6] = assay: Fluc activity in caspase-3-deficient MCF-7 cells transfected with pcFluc-DEVD with or without pCaspase-3; format: cell-based
Method: Analysis of the Flue activity in the caspase-3-deficient MCF-7 cells. MCF-7 cells were transfected with only pcFluc-DEVD (left) or with both pcFluc-DEVD and pCaspase-3 (right). The cells were incubated for 48 hours and the luminescence intensities were evaluated at the indicated times after stimulation with 100 nM STS. A relative luminescence unit (RLU) was defined as follows: the luminescence intensity from the right side (LumR) was divided by that from the left side (LumL), as RLU (%)=LumR/LumL.

[7] = STS 100 μg/kg of body weight i.p.

COC(=O)C[C@H](NC(=O)[C@H](C)NC(=O)[C@@H](NC(=O)OCc1ccccc1)C(C)C)C(=O)CF [Z-VAD-FMK] (Cbz-Val-Ala-Asp(OMe)-CH2F)
luminescence signal relative to signals from vehicle-treated cells (caspase-3 [1]; COS-7 cells treated with 100 μM Z-VAD-FMK (FIG. 5)): 50%
luminescence (caspase-3 [1]; COS-7 cells, 100 μM Z-VAD-FMK, in the presence or absence of 1 μM STS): no increase in luminescence
basal caspase-3 activities (caspase-3 [1]; COS-7 cells, 100 μM Z-VAD-FMK, no STS): completely inhibited
concentrations at which inhibitory effect on the cleavage of the cyclic Fluc was observed (caspase-3 [2]; HeLa cells stimulated with STS for two hours (FIG. 8)): higher than 10 μM
cleavage of the cyclic Fluc (caspase-3 [2]; HeLa cells, 100 μM Z-VAD-FMK, STS stimulation): completely suppressed

CN[C@@H]1C[C@H]2O[C@@](C)([C@@H]1OC)n1c3ccccc3c3c4c(c5c6ccccc6n2c5c31)C(=O)NC4 [STS, staurosporine]
Formation of the linear form of Fluc (caspase-3 [3]): dependent on the concentration of STS
luminescence signals (caspase-3 [1]; COS-7 cells, various concentrations of STS for two hours (FIG. 5)): increased with increase in concentrations of the STS
time at which luminescence signals reach a maximum after stimulation (caspase-3 [4]; STS at various concentrations (FIG. 9)): 100 min
duration of initial slow increase in the luminescence signals (caspase-3 [4]; STS at various concentrations, measured every five minutes (FIG. 9)): 25 min
luminescence signal from the left side (HeLa cells expressing full-length Fluc, control) (caspase-3 [5]; [7]): no significant change
luminescence signal intensity from the right side (implanted cyclic Fluc cells) (caspase-3 [5]; [7]): significant increase
maximum RLU ratio in comparison to the RLU before STS stimulation (caspase-3 [5]; two hours after the intraperitoneal STS injection, RLU=LumR/LumL (FIG. 12)): 300 to 400%
luminescence from the cells (caspase-3 [6]; MCF-7 cells cotransfected with pcFluc-DEVD and pCaspase-3, stimulation with STS): significantly increased
change in the bioluminescence intensity (caspase-3 [6]; MCF-7 cells transfected with pcFluc-DEVD only, 1 μM STS for two hours): little change
concentration range inducing an increase in the bioluminescence intensity (caspase-3 [2]; HeLa cells, STS for two hours (FIG. 7)): 10 to 1000 nM

Cc1c2oc3c(C)ccc(C(=O)N[C@@H]4C(=O)N[C@H](C(C)C)C(=O)N5CCC[C@H]5C(=O)N(C)CC(=O)N(C)[C@@H](C(C)C)C(=O)O[C@@H]4C)c3nc-2c(C(=O)N[C@@H]2C(=O)N[C@H](C(C)C)C(=O)N3CCC[C@H]3C(=O)N(C)CC(=O)N(C)[C@@H](C(C)C)C(=O)O[C@@H]2C)c(N)c1=O [ActD, actinomycin D] (I: T[dV]P[Sar][NMeV] / II: T[dV]P[Sar][NMeV]; ester I:1-I:C, II:1-II:C; linker I:N-II:N via Actinocin(9to1))
time period over which the luminescence signal intensity increased (caspase-3 [4]; ActD, then gradually decreased (FIG. 10)): 25 to 120 min
